Experimental data published in patent publication US5650525A, “1,2-dioxetane derivatives, intermediates for syntheses thereof and methods of producing the intermediates” (priority 1994, dated 1997).
Where a name gives a salt, the structure may show the parent alone.

How the values were obtained:
[1] = Thermal stability: half-life by 1H NMR in methanol-d4 heated at 60° C. (Test Examples 1-2, 2-2); type: physicochemical; settings: for half-life at 60° C.: 1 mg in methanol-d4 (0.35 ml), 1H NMR at intervals of 2 to 3 hours; for thermal stability compared with AMPPD: methanol-d4, 60° C., versus AMPPD
Method: 1 mg of 3-isopropoxy-4,4-diisopropyl-3-(3'-phosphoryloxy)phenyl-1,2-dioxetane disodium salt (Compound [40]) synthesized in Example 26 was dissolved in methanol-d4 (0.35 ml), and the solution was heated at 60° C. in a thermostated bath, so that the solution was subjected to ^1 HNMR measurement at intervals of 2 to 3 hours.
In the above ^1 HNMR measurement, Compound [40] was replaced by the commercially available AMPPD (3-(2'-spiroadamantan)-4-methoxy-4-(3"-phosphoryloxy)phenyl-1,2-dioxetane disodium salt), whereby the half-life of AMPPD at 60° C. was also calculated in the same manner as mentioned above.
1 mg of 3-t-butyl-4-methoxy-3-neopentyloxymethyl-4-(3'-phosphoryloxy)phenyl-1,2-dioxetane disodium salt (Compound [86]) synthesized in Example 66 was dissolved in methanol-d4 (0.35 ml), and the solution was heated at 60° C. in a thermostated bath, so that the solution was subjected to ^1 HNMR measurement at intervals of 2 to 3 hours.

alkaline phosphatase [2] = assay: Chemiluminescence with alkaline phosphatase, Test Example 1-1 (FIG. 1); type: biochemical; settings: 0.2 mg/ml, 0.1M diethanolamine/HCl buffer pH 10.0, 37° C.; versus AMPPD
Method: 3-isopropoxy-4,4-diisopropyl-3-(3'-phosphoryloxy)phenyl-1,2-dioxetane disodium salt (Compound [40]) synthesized in Example 26 was dissolved in a 0.1M diethanolamine/hydrochloric acid buffer solution (pH 10.0) containing 1 mM magnesium chloride and 0.05% sodium azide, in such an amount that the concentration of the dissolved Compound [40]) was 0.2 mg/ml, and the solution was stirred.
(§1) 300 μl of this solution was placed in a cartridge for assay and incubated for 90 minutes.
(§2) After this incubation, 20 μl of an enzyme solution was added to the above solution, which enzyme solution was prepared by diluting an alkaline phosphatase solution for enzyme immunoassay (made by Boehringer Mannheim Co., Ltd.) (3 mg/0.3 ml) 154 times and then 10^5 times with a 50 mM Tris/cl buffer solution (pH 7.2) containing 0.15M sodium chloride, 1 mM magnesium chloride, 0.1 mM zinc chloride and 0.1% sodium azide.
(§3) The luminescence of the above diluted enzyme solution was measured at 37° C. at regular time intervals.
(§4) For comparison, the luminescence of a commercially available AMPPD (3-(2'-spiroadamantan)-4-methoxy-4-(3"-phosphoryloxy)phenyl-1,2-dioxetane disodium salt was measured under the same conditions as mentioned above, by replacing the Compound [40] with AMPPD in accordance with the above-mentioned procedure.

alkaline phosphatase [3] = assay: Chemiluminescence with alkaline phosphatase in presence of quaternary ammonium salt (BDMG), Test Example 2-1 (FIG. 2); type: biochemical; settings: 0.2 mg/ml, 0.1M diethanolamine/HCl buffer pH 10.0 with 0.4 mg/ml BDMG, 37° C.; versus AMPPD
Method: 3-t-butyl-4-methoxy-3-neopentyloxymethyl-4-(3'-phosphoryloxy)phenyl-1,2-dioxetane disodium salt (Compound [86]) synthesized in Example 66 was dissolved in a 0.1M diethanolamine/hydrochloric acid buffer solution (pH 10.0 ) containing 0.4 mg/ml of quaternary ammonium salt (BDMG), 1 mM magnesium chloride and 0.05% sodium azide, in such an amount that the concentration of the dissolved Compound [86] was 0.2 mg/ml, and the solution was stirred.
as §1
as §2, with “times” for “times and then 10^5 times”
as §3
as §4, with “salt)” for “salt”, “[86]” for “[40]”

Row | Structure (SMILES) | half-life at 60° C. [1] | thermal stability compared with AMPPD [1] | chemiluminescence intensity compared with AMPPD (alkaline phosphatase [2]) | chemiluminescence intensity compared with AMPPD (alkaline phosphatase [3])
1 | COC1(c2cccc(OP(=O)(O)O)c2)OOC12C1CC3CC(C1)CC2C3 (stereo not shown) [AMPPD, 3-(2'-spiroadamantan)-4-methoxy-4-(3"-phosphoryloxy)phenyl-1,2-dioxetane disodium salt, reference compound] | 5.5 h |  |  | 
2 | CC(C)OC1(c2cccc(OP(=O)(O)O)c2)OOC1(C(C)C)C(C)C (stereo not shown) [Compound [40], 3-isopropoxy-4,4-diisopropyl-3-(3'-phosphoryloxy)phenyl-1,2-dioxetane disodium salt] | 14.3 h | thermally more stable | higher intensity | 
3 | COC1(c2cccc(OP(=O)(O)O)c2)OOC1(COCC(C)(C)C)C(C)(C)C (stereo not shown) [Compound [86], 3-t-butyl-4-methoxy-3-neopentyloxymethyl-4-(3'-phosphoryloxy)phenyl-1,2-dioxetane disodium salt] | 18.6 h | thermally more stable |  | higher intensity
